Results reported in ChEMBL document CHEMBL5375952, “Discovery of Novel 8-Hydroxyquinoline Derivatives with Potent In Vitro and In Vivo Antifungal Activity” (J Med Chem, 2023).
Activity calls are given as the source filed them.

Key:
Nakaseomyces glabratus [1] = assay: Antifungal activity against Candida glabrata 203 assessed as fungal growth inhibition incubated for 48 hrs by broth microdilution method; format: functional
Candida albicans [2] = assay: Antifungal activity against FLC-resistant Candida albicans 14 assessed as fungal growth inhibition incubated for 48 hrs by broth microdilution method; format: functional
Candida tropicalis = assay: Antifungal activity against Candida tropicalis 178 assessed as fungal growth inhibition incubated for 48 hrs by broth microdilution method; format: functional
Candida albicans [3] = assay: Antifungal activity against FLC-resistant Candida albicans 8 assessed as fungal growth inhibition incubated for 48 hrs by broth microdilution method; format: functional
Candida albicans [4] = assay: Antifungal activity against FLC-resistant Candida albicans 710513 assessed as fungal growth inhibition incubated for 48 hrs by broth microdilution method; format: functional
Candida albicans [5] = assay: Antifungal activity against FLC-resistant Candida albicans 17 assessed as fungal growth inhibition incubated for 48 hrs by broth microdilution method; format: functional
Candida albicans [6] = assay: Antifungal activity against FLC-resistant Candida albicans 819 assessed as fungal growth inhibition incubated for 48 hrs by broth microdilution method; format: functional
Candida albicans [7] = assay: Antifungal activity against FLC-resistant Candida albicans 540 assessed as fungal growth inhibition incubated for 48 hrs by broth microdilution method; format: functional
Candida albicans [8] = assay: Antifungal activity against FLC-resistant Candida albicans 5740 assessed as fungal growth inhibition incubated for 48 hrs by broth microdilution method; format: functional
Candida albicans [9] = assay: Antifungal activity against FLC-resistant Candida albicans 512644 assessed as fungal growth inhibition incubated for 48 hrs by broth microdilution method; format: functional
Candida albicans [10] = assay: Antifungal activity against FLC-resistant Candida albicans 646 assessed as fungal growth inhibition incubated for 48 hrs by broth microdilution method; format: functional
Candida albicans [11] = assay: Antifungal activity against FLC-resistant Candida albicans 710452 assessed as fungal growth inhibition incubated for 48 hrs by broth microdilution method; format: functional
Candida albicans [12] = assay: Antifungal activity against FLC-resistant Candida albicans 710419 assessed as fungal growth inhibition incubated for 48 hrs by broth microdilution method; format: functional
Candida albicans [13] = assay: Antifungal activity against FLC-resistant Candida albicans 512681 assessed as fungal growth inhibition incubated for 48 hrs by broth microdilution method; format: functional
Candida albicans [14] = assay: Antifungal activity against FLC-resistant Candida albicans 12 assessed as fungal growth inhibition incubated for 48 hrs by broth microdilution method; format: functional
Candida albicans [15] = assay: Antifungal activity against FLC-resistant Candida albicans 953 assessed as fungal growth inhibition incubated for 48 hrs by broth microdilution method; format: functional
Candida albicans [16] = assay: Antifungal activity against FLC-resistant Candida albicans 10 assessed as fungal growth inhibition incubated for 48 hrs by broth microdilution method; format: functional
[17] = Cytotoxicity against HUVEC cells assessed as cell growth inhibition incubated for 24 hrs by CCK8 assay; format: toxicity, cell-based; settings: human
Pichia kudriavzevii = assay: Antifungal activity against Candida krusei 69 assessed as fungal growth inhibition incubated for 48 hrs by broth microdilution method; format: functional
Candida albicans [18] = assay: Antifungal activity against FLC-resistant Candida albicans 385 assessed as fungal growth inhibition incubated for 48 hrs by broth microdilution method; format: functional
Candida albicans [19] = assay: Antifungal activity against FLC-resistant Candida albicans 305 assessed as fungal growth inhibition incubated for 48 hrs by broth microdilution method; format: functional
Candida albicans [20] = assay: Antifungal activity against FLC-resistant Candida albicans 11 assessed as fungal growth inhibition incubated for 48 hrs by broth microdilution method; format: functional
Candida albicans [21] = assay: Antifungal activity against FLC-resistant Candida albicans 710554 assessed as fungal growth inhibition incubated for 48 hrs by broth microdilution method; format: functional
Candida albicans [22] = assay: Antifungal activity against FLC-resistant Candida albicans 379 assessed as fungal growth inhibition incubated for 48 hrs by broth microdilution method; format: functional
Nakaseomyces glabratus [23] = assay: Antifungal activity against Candida glabrata 222 assessed as fungal growth inhibition incubated for 48 hrs by broth microdilution method; format: functional
Candida albicans [24] = assay: Antifungal activity against FLC-resistant Candida albicans 1221 assessed as fungal growth inhibition incubated for 48 hrs by broth microdilution method; format: functional
Candida albicans [25] = assay: Antifungal activity against FLC-resistant Candida albicans 64548 assessed as fungal growth inhibition incubated for 48 hrs by broth microdilution method; format: functional
Candida albicans [26] = assay: Antifungal activity against FLC-resistant Candida albicans 249 assessed as fungal growth inhibition incubated for 48 hrs by broth microdilution method; format: functional
Cryptococcus neoformans = assay: Antifungal activity against Cryptococcus neoformans SH68 assessed as fungal growth inhibition incubated for 48 hrs by broth microdilution method; format: functional
Candida albicans [27] = assay: Antifungal activity against FLC-resistant Candida albicans 538 assessed as fungal growth inhibition incubated for 48 hrs by broth microdilution method; format: functional
Candida albicans [28] = assay: Inhibition of mature biofilm formation of Candida albicans SC5314 upto 16 ug/ml incubated for 24 hrs by XTT assay; format: functional, organism-based; settings: dose <= 16.0 µg/ml
Candida albicans [29] = assay: Antifungal activity against FLC-resistant Candida albicans 241 assessed as fungal growth inhibition incubated for 48 hrs by broth microdilution method; format: functional
Candida albicans [30] = assay: Antifungal activity against Candida albicans 22 assessed as fungal growth inhibition incubated for 48 hrs by broth microdilution method; format: functional
Candida albicans [31] = assay: Antifungal activity against FLC-resistant Candida albicans 100 assessed as fungal growth inhibition incubated for 48 hrs by broth microdilution method; format: functional
Candida albicans [32] = assay: Antifungal activity against FLC-resistant Candida albicans 710506 assessed as fungal growth inhibition incubated for 48 hrs by broth microdilution method; format: functional
Candida albicans [33] = assay: Antifungal activity against FLC-resistant Candida albicans 605141 assessed as fungal growth inhibition incubated for 48 hrs by broth microdilution method; format: functional
Candida albicans [34] = assay: Antifungal activity against FLC-resistant Candida albicans 395 assessed as fungal growth inhibition incubated for 48 hrs by broth microdilution method; format: functional
Candida albicans [35] = assay: Antifungal activity against FLC-resistant Candida albicans 304103 assessed as fungal growth inhibition incubated for 48 hrs by broth microdilution method; format: functional
Candida albicans [36] = assay: Synergistic antifungal activity against FLC-resistant Candida albicans 249 assessed as fungal growth inhibition incubated for 48 hrs in presence of FLC by broth microdilution method; format: functional
Candida albicans [37] = assay: Synergistic antifungal activity against FLC-resistant Candida albicans 710554 assessed as fungal growth inhibition incubated for 48 hrs in presence of FLC by broth microdilution method; format: functional
Candida albicans [38] = assay: Antifungal activity against Candida albicans SC5314 assessed as fungal growth inhibition incubated for 48 hrs in presence of Mg2+ by broth microdilution method; format: functional, organism-based
Candida albicans [39] = assay: Antifungal activity against Candida albicans SC5314 assessed as fungal growth inhibition incubated for 48 hrs in presence of K+ by broth microdilution method; format: functional, organism-based
Candida albicans [40] = assay: Antifungal activity against Candida albicans SC5314 assessed as fungal growth inhibition incubated for 48 hrs in presence of Zn2+ by broth microdilution method; format: functional, organism-based
Candida albicans [41] = assay: Antifungal activity against Candida albicans SC5314 infected in C57BL/6 mouse assessed as mean fungal burden at 2 mg/kg, ip measured after 46 hrs by plate count method (reference value: 6.890 log10CFU/ml); format: functional
Candida albicans [42] = assay: Synergistic antifungal activity against FLC-resistant Candida albicans 1221 assessed as fungal growth inhibition incubated for 48 hrs in presence of FLC by broth microdilution method; format: functional
[43] = Toxicity in C57BL/6 mouse infected with Candida albicans SC5314 assessed as mean survival time at 2 mg/kg, ip (reference value: 5 day); format: organism-based; settings: in vivo, 120 h
Candida albicans [44] = assay: Antifungal activity against Candida albicans SC5314 assessed as fungal growth inhibition incubated for 48 hrs in presence of Ca2+ by broth microdilution method; format: functional, organism-based

OC(Cn1cncn1)(Cn1cncn1)c1ccc(F)cc1F [FLUCONAZOLE]
32 mg/L: MIC (Candida albicans [2]) | MIC (Candida albicans [5]) | MIC (Candida albicans [6]) | MIC (Candida albicans [8]) | MIC (Candida albicans [14]) | MIC (Candida albicans [16]) | MIC (Candida albicans [20]) | MIC (Candida albicans [26]) | MIC (Candida albicans [34]) | MIC (Candida albicans [35])
> 64 mg/L: MIC (Candida albicans [4]) | MIC (Candida albicans [7]) | MIC (Candida albicans [9]) | MIC (Candida albicans [10]) | MIC (Candida albicans [11]) | MIC (Candida albicans [12]) | MIC (Candida albicans [13]) | MIC (Candida albicans [15]) | MIC (Candida albicans [18]) | MIC (Candida albicans [19]) | MIC (Candida albicans [21]) | MIC (Candida albicans [22]) | MIC (Candida albicans [24]) | MIC (Candida albicans [25]) | MIC (Candida albicans [27]) | MIC (Candida albicans [29]) | MIC (Candida albicans [32]) | MIC (Candida albicans [33])
8 mg/L: MIC (Cryptococcus neoformans)
16 mg/L: MIC (Candida albicans [3]) | MIC (Candida albicans [31])
0.25 mg/L: MIC (Pichia kudriavzevii)
1 mg/L: MIC (Nakaseomyces glabratus [23])
0.5 mg/L: MIC (Candida albicans [30])
0.125 mg/L: MIC (Nakaseomyces glabratus [1])
9.18 mg/L: IC50 at 24 h [17]
2 mg/L: MIC (Candida tropicalis)
inactive: inhibition (Candida albicans [28])

CCN(CC)c1ccc(C(NC(=O)C(C)C)c2ccc3cccnc3c2O)cc1 (configuration not stated)
67.8 mg/L: IC50 at 24 h [17]
active: growth inhibition (GI) (Candida albicans [38]) | growth inhibition (GI) (Candida albicans [39]) | growth inhibition (GI) (Candida albicans [40]) | growth inhibition (GI) (Candida albicans [44])
0.032 mg/L: MIC (Candida tropicalis)
0.063 mg/L: MIC (Candida albicans [8]) | MIC (Candida albicans [30])
6.5 days: Survival [43]
0.25 mg/L: MIC (Candida albicans [7]) | MIC (Candida albicans [9]) | MIC (Candida albicans [13]) | MIC (Candida albicans [14]) | MIC (Candida albicans [20]) | MIC (Candida albicans [22]) | MIC (Candida albicans [24]) | MIC (Candida albicans [26]) | MIC (Candida albicans [27]) | MIC (Candida albicans [35])
0.008 mg/L: MIC (Candida albicans [36])
0.5 mg/L: MIC (Candida albicans [4]) | MIC (Candida albicans [5]) | MIC (Candida albicans [12]) | MIC (Candida albicans [15]) | MIC (Candida albicans [19]) | MIC (Candida albicans [21]) | MIC (Candida albicans [25]) | MIC (Candida albicans [29]) | MIC (Candida albicans [33])
0.016 mg/L: MIC (Nakaseomyces glabratus [1])
6.283 log10CFU/g: Activity (Candida albicans [41])
inactive: inhibition (Candida albicans [28])
1 mg/L: MIC (Candida albicans [32])
< 0.016 mg/L: MIC (Cryptococcus neoformans)
0.125 mg/L: MIC (Candida albicans [2]) | MIC (Candida albicans [3]) | MIC (Candida albicans [6]) | MIC (Candida albicans [10]) | MIC (Candida albicans [11]) | MIC (Candida albicans [16]) | MIC (Pichia kudriavzevii) | MIC (Candida albicans [18]) | MIC (Nakaseomyces glabratus [23]) | MIC (Candida albicans [31]) | MIC (Candida albicans [34])
0.031 mg/L: MIC (Candida albicans [37]) | MIC (Candida albicans [42])

Oc1c(I)cc(Cl)c2cccnc12 [CLIOQUINOL]
0.25 mg/L: MIC (Nakaseomyces glabratus [23])
6.683 log10CFU/g: Activity (Candida albicans [41])
5 days: Survival [43]
active: growth inhibition (GI) (Candida albicans [38]) | growth inhibition (GI) (Candida albicans [39]) | growth inhibition (GI) (Candida albicans [40]) | growth inhibition (GI) (Candida albicans [44])
0.125 mg/L: MIC (Nakaseomyces glabratus [1]) | MIC (Candida tropicalis) | MIC (Pichia kudriavzevii) | MIC (Cryptococcus neoformans) | MIC (Candida albicans [30])
